These results are taken from patent publication US8952177B2 (Janssen Pharmaceutica NV, priority 2013, dated 2015).

The structures appear in SMILES notation. Where a name gives a salt, the structure may show the parent alone.

The test system of the first experiment is leukotriene pathway in human whole blood (LTB4). Nature of the experiment: Human whole blood assay (LTB4 after calcium ionophore A23187 stimulation). In kind it is cell-based. The settings on record: Homo sapiens, human whole blood diluted 1:1 in RPMI, 15 min pre-incubation, A23187 7 μg/mL for 30 min at 37° Celsius. The protocol: The ability of the compounds of the present invention to treat a FLAP-mediated disease and/or disorder, or associated symptoms or complications thereof, was determined using the following procedures. Binding assay data represent the average value obtained from two different assay plates, with samples run in duplicate on each plate. Human whole blood assay data represent a single replicate on an assay plate using whole blood from at least one healthy donor.
An in vitro cellular assay was performed using human whole blood collected in heparin-containing tubes, which was used to test the ability of compounds to modulate the leukotriene pathway in human whole blood. The blood was diluted 1:1 in RPMI medium, pre-incubated for 15 min at 37° Celsius with test compounds at various concentrations, and then stimulated with calcium ionophore, A23187 (7 μg/mL), for 30 min at 37° Celsius. The samples were then centrifuged and plasma was removed. The plasma was diluted in assay buffer and LTB4 levels were measured using a commercial kit (Enzo Life Sciences). The concentration of each compound that was required for half-maximal inhibition (modulation) of […] (IC50) was calculated by a 4-parameter equation using the program GraphPad Prism (GraphPad software). For analysis, data are imported into 3DX and aggregated as the average of duplicates of the calculated ratios in order to calculate Ki and IC50 values. Numbers in parentheses are the number of runs for the assay.
In the case of `Cc1ccc(COc2ccc3nc(C4CCCC[C@H]4C(=O)O)n(Cc4ccc(Br)c(F)c4)c3c2)nc1` (mixture of isomers) [Example 4, racemic cis-2-{1-(4-Bromo-3-fluorobenzyl)-6-[(5-methylpyridin-2-yl)methoxy]-1H-benzimidazol-2-yl}cyclohexanecarboxylic acid as the TFA salt], the IC50 came to 1020 nM.

Take `Cc1ccc(COc2ccc3nc(C4CCCC[C@H]4C(=O)O)n(Cc4ccc(Br)cc4F)c3c2)nc1` (mixture of isomers) [Example 10, racemic cis-2-{1-(4-Bromo-2-fluorobenzyl)-6-[(5-methylpyridin-2-yl)methoxy]-1H-benzimidazol-2-yl}cyclohexanecarboxylic acid]: the IC50 is 380 nM.

As for `Cc1ccc(COc2ccc3nc(C4CCCC[C@@H]4C(=O)O)n(Cc4ccc(Br)cc4F)c3c2)nc1` (mixture of isomers) [Example 13, racemic trans-2-{1-(4-Bromo-2-fluorobenzyl)-6-[(5-methylpyridin-2-yl)methoxy]-1H-benzimidazol-2-yl}cyclohexanecarboxylic acid], the half-inhibitory concentration (IC50) turned out to be 1190 nM.

Regarding `Cc1ccc(COc2ccc3nc([C@H]4CCCC[C@H]4C(=O)O)n(Cc4ccc(OC(F)(F)F)c(F)c4)c3c2)nc1` (racemic) [Example 20, racemic cis-2-{1-[3-Fluoro-4-(trifluoromethoxy)benzyl]-6-[(5-methylpyridin-2-yl)methoxy]-1H-benzimidazol-2-yl}cyclohexanecarboxylic acid], the half-maximal inhibitory concentration (IC50) was 750 nM.

For the compound `Cc1ccc(COc2ccc3nc([C@H]4CCCC[C@@H]4C(=O)O)n(Cc4ccc(OC(F)(F)F)cc4F)c3c2)nc1` (racemic) [Example 21, racemic trans-2-{1-[2-Fluoro-4-(trifluoromethoxy)benzyl]-6-[(5-methylpyridin-2-yl)methoxy]-1H-benzimidazol-2-yl}cyclohexanecarboxylic acid], the IC50 came to 740 nM.

On to `Cc1ccc(COc2ccc3nc([C@@H]4[C@H](C(=O)O)C4(C)C)n(Cc4ccc(OC(F)(F)F)cc4)c3c2)nc1` (racemic) [Example 25], for which the concentration for half-maximal inhibition (IC50) was 3120 nM.

With `Cc1ccc(COc2ccc3nc([C@H]4CCCC[C@H]4C(=O)O)n(Cc4ccc(OC(F)(F)F)cc4F)c3c2)nc1` (racemic) [Example 26, racemic cis-2-{1-[2-Fluoro-4-(trifluoromethoxy)benzyl]-6-[(5-methylpyridin-2-yl)methoxy]-1H-benzimidazol-2-yl}cyclohexanecarboxylic acid], the IC50 was 560 nM.

As to `Cc1ccc(COc2ccc3nc([C@@H]4CCCC[C@H]4C(=O)O)n(Cc4ccc(OC(F)(F)F)cc4)c3c2)nc1` (racemic) [Example 31, racemic trans-2-{6-[(5-Methylpyridin-2-yl)methoxy]-1-[4-(trifluoromethoxy)benzyl]-1H-benzimidazol-2-yl}cyclohexanecarboxylic acid], the IC50 is 1970 nM.

In the case of `Cc1ccc(COc2ccc3nc([C@H]4CCCC[C@H]4C(=O)O)n(Cc4ccc(OC(F)(F)F)c(Cl)c4)c3c2)nc1` (racemic) [Example 32, racemic cis-2-{1-[3-Chloro-4-(trifluoromethoxy)benzyl]-6-[(5-methylpyridin-2-yl)methoxy]-1H-benzimidazol-2-yl}cyclohexanecarboxylic acid], the IC50 came out at 210 nM.

Regarding `Cn1ccc(COc2ccc3nc([C@H]4CCCC[C@H]4C(=O)O)n(Cc4ccc(OC(F)(F)F)cc4)c3c2)n1` (racemic) [Example 44, racemic cis-2-{6-[(1-Methyl-1H-pyrazol-3-yl)methoxy]-1-[4-(trifluoromethoxy)benzyl]-1H-benzimidazol-2-yl}cyclohexanecarboxylic acid], the IC50 worked out at 1010 nM.

As to `Cn1ccc(COc2ccc3nc([C@H]4CCCC[C@@H]4C(=O)O)n(Cc4ccc(OC(F)(F)F)cc4)c3c2)n1` (racemic) [Example 54, racemic trans-2-{6-[(1-Methyl-1H-pyrazol-3-yl)methoxy]-1-[4-(trifluoromethoxy)benzyl]-1H-benzimidazol-2-yl}cyclohexanecarboxylic acid], the IC50 is 2910 nM.

For `Cn1ccc(COc2ccc3nc([C@@H]4CCCC[C@@H]4C(=O)O)n(Cc4ccc(OC(F)(F)F)c(F)c4)c3c2)n1` (racemic) [Example 55, racemic cis-2-{1-[3-Fluoro-4-(trifluoromethoxy)benzyl]-6-[(1-methyl-1H-pyrazol-3-yl)methoxy]-1H-benzimidazol-2-yl}cyclohexanecarboxylic acid], the IC50 is 3330 nM.

For the compound `Cc1ccc(COc2cc(F)c3nc([C@@H]4CCCC[C@@H]4C(=O)O)n(Cc4ccc(Br)cc4)c3c2)nc1` (racemic) [Example 59, racemic cis-2-{1-(4-Bromobenzyl)-4-fluoro-6-[(5-methylpyridin-2-yl)methoxy]-1H-benzimidazol-2-yl}cyclohexanecarboxylic acid], the IC50 was determined as 190 nM.

With `Cc1ccc(COc2cc(F)c3nc([C@H]4CCCC[C@@H]4C(=O)O)n(Cc4ccc(Br)cc4)c3c2)nc1` (racemic) [Example 62, racemic trans-2-{1-(4-Bromobenzyl)-4-fluoro-6-[(5-methylpyridin-2-yl)methoxy]-1H-benzimidazol-2-yl}cyclohexanecarboxylic acid], the concentration for half-maximal inhibition (IC50) amounted to 970 nM.

Take `Cc1ccc(COc2cc(F)c3nc(C4[C@H](C(=O)O)C4(C)C)n(Cc4ccc(Br)cc4)c3c2)nc1` (mixture of isomers) [Example 63, racemic cis-3-{1-(4-Bromobenzyl)-4-fluoro-6-[(5-methylpyridin-2-yl)methoxy]-1H-benzimidazol-2-yl}-2,2-dimethylcyclopropanecarboxylic acid]: the IC50 was 1080 nM.

With `Cc1ccc(COc2cc(F)c3nc(C4CCCC[C@H]4C(=O)O)n(Cc4ccc(OC(F)(F)F)cc4)c3c2)nc1` (mixture of isomers) [Example 66, racemic cis-2-{4-Fluoro-6-[(5-methylpyridin-2-yl)methoxy]-1-[4-(trifluoromethoxy)benzyl]-1H-benzimidazol-2-yl}cyclohexanecarboxylic acid as the TFA salt], the IC50 worked out at 590 nM.

The experiment is the same for the next values; noted with them: human whole blood diluted 1:1 in RPMI, 15 min pre-incubation, A23187 7 μg/mL for 30 min at 37° Celsius.
With `Cc1ccc(COc2ccc3nc(C4CCCC[C@@H]4C(=O)O)n(Cc4ccc(Br)cc4)c3c2)nc1` (mixture of isomers) [Example 1, racemic cis-2-{1-(4-Bromobenzyl)-6-[(5-methylpyridin-2-yl)methoxy]-1H-benzimidazol-2-yl}cyclohexanecarboxylic acid], the IC50 came to 400 nM.

Still in this experiment, the particulars now being: human whole blood diluted 1:1 in RPMI, 15 min pre-incubation, A23187 7 μg/mL for 30 min at 37° Celsius; TFA salt.
Regarding `Cc1ccc(COc2ccc3nc(C4CCCC[C@@H]4C(=O)O)n(Cc4ccc(Br)cc4)c3c2)nc1` (mixture of isomers) [Example 5, racemic trans-2-{1-(4-Bromobenzyl)-6-[(5-methylpyridin-2-yl)methoxy]-1H-benzimidazol-2-yl}cyclohexanecarboxylic acid as the TFA salt], the half-inhibitory concentration (IC50) stood at 1390 nM.

For `Cn1ccc(COc2ccc3nc(C4CCCC[C@H]4C(=O)O)n(Cc4ccc(Br)cc4)c3c2)n1` (mixture of isomers) [Example 40, racemic cis-2-{1-(4-Bromobenzyl)-6-[(1-methyl-1H-pyrazol-3-yl)methoxy]-1H-benzimidazol-2-yl}cyclohexanecarboxylic acid as the TFA salt], the concentration for half-maximal inhibition (IC50) turned out to be 470 nM.

On to `Cn1ccc(COc2ccc3nc(C4CCCC[C@H]4C(=O)O)n(Cc4ccc(Br)cc4)c3c2)n1` (mixture of isomers) [Example 41, racemic trans-2-{1-(4-Bromobenzyl)-6-[(1-methyl-1H-pyrazol-3-yl)methoxy]-1H-benzimidazol-2-yl}cyclohexanecarboxylic acid as the TFA salt], for which the 50% inhibitory concentration (IC50) is 6760 nM.
